Test results from patent publication US12503471B2, “Triazatricycle compounds for the treatment of autoimmune disease” (Hoffmann-La Roche Inc., priority 2019, dated 2025).

Biological target: T1, hERG channel (Homo sapiens, UniProt Q12809)
T1 construct: expressed in transfected cells; host or cells: CHO (Chinese hamster ovary)
Assay: hERG channel inhibition assay
Format: cell-based
Conditions: whole-cell patch-clamp; for IC50: CHO cells expressing hERG; for IC20: human, CHO cells stably expressing hERG
Method: hERG Channel Inhibition Assay
The hERG K^+ channels were cloned in humans and stably expressed in a CHO (Chinese hamster ovary) cell line. CHOhERG cells were used for patch-clamp (voltage-clamp, whole-cell) experiments. Cells were stimulated by a voltage pattern to activate hERG channels and conduct IKhERG Currents (rapid delayed outward rectifier potassium current of the hERG channel). After the cells were stabilized for a few minutes, the amplitude and kinetics of IKhERG were recorded at a stimulation frequency of 0.1 Hz (6 bpm). Thereafter, the test compound was added to the preparation at increasing concentrations. For each concentration, an attempt was made to reach a steady-state effect, usually, this was achieved within 3-10 min at which time the next highest concentration was applied. The amplitude and kinetics of IKhERG are recorded in each concentration of the drug which were compared to the control values (taken as 100%). (references: Redfern W S, Carlsson L, Davis A S, Lynch W G, MacKenzie I, Palethorpe S, Siegl P K, Strang I, Sullivan A T, Wallis R, Camm A J, Hammond T G. 2003; Relationships between preclinical cardiac electrophysiology, clinical Q T interval prolongation and torsade de pointes for a broad range of drugs: evidence for a provisional safety margin in drug development. Cardiovasc. Res. 58:32-45, Sanguinetti M C, Tristani-Firouzi M. 2006; hERG potassium channels and cardiac arrhythmia. Nature 440:463-469, Webster R, Leishman D, Walker D. 2002; Towards a drug concentration effect relationship for QT prolongation and torsades de pointes. Curr. Opin. Drug Discov. Devel. 5:116-26).

T1 sequence (Q12809 whole entry): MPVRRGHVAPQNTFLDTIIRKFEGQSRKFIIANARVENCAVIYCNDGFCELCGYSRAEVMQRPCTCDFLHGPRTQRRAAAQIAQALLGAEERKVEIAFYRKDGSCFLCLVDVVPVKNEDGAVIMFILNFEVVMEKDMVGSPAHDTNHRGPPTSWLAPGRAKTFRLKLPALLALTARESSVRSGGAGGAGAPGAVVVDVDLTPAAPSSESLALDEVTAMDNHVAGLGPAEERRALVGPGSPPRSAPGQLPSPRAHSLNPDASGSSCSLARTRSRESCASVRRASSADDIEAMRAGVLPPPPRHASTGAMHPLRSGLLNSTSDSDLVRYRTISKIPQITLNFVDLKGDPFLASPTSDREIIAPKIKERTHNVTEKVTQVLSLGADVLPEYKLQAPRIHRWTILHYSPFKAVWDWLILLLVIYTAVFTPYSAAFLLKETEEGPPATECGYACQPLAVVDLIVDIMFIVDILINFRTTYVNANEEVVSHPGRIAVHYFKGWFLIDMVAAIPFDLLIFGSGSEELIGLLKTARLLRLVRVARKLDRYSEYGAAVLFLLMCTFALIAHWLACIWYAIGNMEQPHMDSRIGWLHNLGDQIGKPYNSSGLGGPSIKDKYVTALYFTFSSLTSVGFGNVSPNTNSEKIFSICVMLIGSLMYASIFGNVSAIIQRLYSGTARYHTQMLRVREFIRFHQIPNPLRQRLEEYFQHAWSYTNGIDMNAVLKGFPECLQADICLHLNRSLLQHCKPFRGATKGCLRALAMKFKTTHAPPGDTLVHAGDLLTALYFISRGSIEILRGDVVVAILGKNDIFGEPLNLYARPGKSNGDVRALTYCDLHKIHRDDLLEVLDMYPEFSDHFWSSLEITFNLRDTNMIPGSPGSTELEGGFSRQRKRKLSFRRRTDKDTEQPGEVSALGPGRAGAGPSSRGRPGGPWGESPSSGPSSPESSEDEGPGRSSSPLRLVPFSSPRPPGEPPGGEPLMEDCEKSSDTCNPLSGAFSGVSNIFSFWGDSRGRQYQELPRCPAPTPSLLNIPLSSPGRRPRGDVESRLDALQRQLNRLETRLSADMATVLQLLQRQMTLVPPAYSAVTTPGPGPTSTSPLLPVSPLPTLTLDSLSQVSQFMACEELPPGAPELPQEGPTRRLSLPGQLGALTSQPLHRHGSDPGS

Structure (SMILES)	IC50 [µM]	IC20 [µM]
[2H]c1ccc2c(N3C[C@@H](C)N4Cc5nc(N6C[C@H]7C[C@@H]6CN7)ccc5[C@H]4C3)ccc(C#N)c2n1 [Example 17, 2-Deuterio-5-[(2S,6R)-11-[(1R,4R)-2,5-diazabicyclo[2.2.1]heptan-2-yl]-6-methyl-4,7,10-triazatricyclo[7.4.0.02,7]trideca-1(9),10,12-trien-4-yl]quinoline-8-carbonitrile]	> 20	> 10
[2H]c1ccc2c(N3C[C@@H](C)N4Cc5nc(N6CC[C@](C)(N)C6)ccc5[C@H]4C3)ccc(C#N)c2n1 [Example 8, 5-[(2S,6R)-11-[(3S)-3-amino-3-methyl-pyrrolidin-1-yl]-6-methyl-4,7,10-triazatricyclo[7.4.0.02,7]trideca-1(9),10,12-trien-4-yl]-2-deuterio-quinoline-8-carbonitrile]	> 20	5.5
C[C@@H]1CN(c2ccc(C#N)c3ncccc23)C[C@@H]2c3ccc(N4CC5CNCC(C4)O5)nc3CN12 [Example 6, 5-[(2S,6R)-6-methyl-11-(9-oxa-3,7-diazabicyclo[3.3.1]nonan-3-yl)-4,7,10-triazatricyclo[7.4.0.02,7]trideca-1(9),10,12-trien-4-yl]quinoline-8-carbonitrile]	> 20	> 10
[2H]c1ccc2c(N3C[C@@H](C)N4Cc5nc(N6CCC7(CNC7)C6)ccc5[C@H]4C3)ccc(C#N)c2n1 [Example 9, 2-Deuterio-5-[(2S,6R)-11-(2,6-diazaspiro[3.4]octan-6-yl)-6-methyl-4,7,10-triazatricyclo[7.4.0.02,7]trideca-1(9),10,12-trien-4-yl]quinoline-8-carbonitrile]	> 20	> 10
[2H]c1ccc2c(N3C[C@@H](C)N4Cc5nc(N6CC[C@@](C)(N)C6)ccc5[C@H]4C3)ccc(C#N)c2n1 [Example 7, 5-[(2S,6R)-11-[(3R)-3-amino-3-methyl-pyrrolidin-1-yl]-6-methyl-4,7,10-triazatricyclo[7.4.0.02,7]trideca-1(9),10,12-trien-4-yl]-2-deuterio-quinoline-8-carbonitrile]	> 20	> 10
C[C@@H]1CN(c2ccc(C#N)c3ncccc23)C[C@@H]2c3ccc(N4CCCNCC4)nc3CN12 [Example 20, 5-[(2S,6R)-11-(1,4-diazepan-1-yl)-6-methyl-4,7,10-triazatricyclo[7.4.0.02,7]trideca-1(9),10,12-trien-4-yl]quinoline-8-carbonitrile]	> 20	> 10
